Consider six compounds from article PMC8359193, “Summary of reference chemicals evaluated by the fish short‐term reproduction assay, OECD TG229, using Japanese Medaka, Oryzias latipes” (Journal of Applied Toxicology, 2021).

For the assay, the target named is T1, medaka Esr1 (mEsr1) (Oryzias latipes, UniProt P50241).
T1 construct: expressed in transfected cells; host or cells: HEK293 (human embryonic kidney cells), transient transfection with FuGENE HD
T1 sequence (P50241 1-620): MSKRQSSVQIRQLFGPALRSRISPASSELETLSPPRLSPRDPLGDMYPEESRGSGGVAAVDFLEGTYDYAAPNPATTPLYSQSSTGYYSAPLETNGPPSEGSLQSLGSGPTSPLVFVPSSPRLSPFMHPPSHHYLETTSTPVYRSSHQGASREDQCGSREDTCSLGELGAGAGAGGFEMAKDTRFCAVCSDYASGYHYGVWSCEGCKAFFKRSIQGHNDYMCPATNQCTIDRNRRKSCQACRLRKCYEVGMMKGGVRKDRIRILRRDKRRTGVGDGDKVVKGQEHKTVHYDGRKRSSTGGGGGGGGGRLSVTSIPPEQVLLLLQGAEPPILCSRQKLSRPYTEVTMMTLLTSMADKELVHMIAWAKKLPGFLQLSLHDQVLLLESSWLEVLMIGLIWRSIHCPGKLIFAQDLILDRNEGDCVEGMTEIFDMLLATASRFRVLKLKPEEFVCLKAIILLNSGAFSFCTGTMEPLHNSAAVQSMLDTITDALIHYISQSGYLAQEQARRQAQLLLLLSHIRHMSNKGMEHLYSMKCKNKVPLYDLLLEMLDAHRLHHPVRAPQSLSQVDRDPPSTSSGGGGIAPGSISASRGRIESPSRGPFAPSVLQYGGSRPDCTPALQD
The assay can be described thus: cell-based. The format is cell-based, Japanese medaka (Oryzias latipes). As for the experimental part: To support interpretation of the biological effects observed in the FSTRA studies, in vitro RGAs using medaka Esr1 (mEsr1) and medaka ARβ (mARβ) were performed for the 16 test chemicals. In the present study, Esr1 and ARβ, which are ancestral subtypes among Esrs and ARs in Japanese medaka, were selected based on the phylogenetical analyses of Esr and AR with each receptor RGAs (Ogino et al., [2016], [2018]; Tohyama et al., [2015]).
The mEsr1 RGA consisting of agonist and antagonist assays were performed according to the methods previously reported (Katsu et al., [2010]; Lange et al., [2012]; Miyagawa et al., [2014]). Briefly, human embryonic kidney cells 293 (HEK293), precultured, were seeded in 96‐well plates at 15,000 cells/well with 200 μl of culture medium, phenol‐red‐free Dulbecco's Modified Eagle's medium (ThermoFisher Scientific K.K., Tokyo, Japan) supplemented with 2‐mM L‐glutamine and 10% charcoal/dextran‐treated fetal bovine serum (Hyclone, UT, USA), and then incubated for 24 h in 5% CO2 at 37°C. After the 24‐h incubation, 20 μl of test medium containing 40 ng of medaka Esr1/pcDNA3.1, 80 ng of ERE‐TK‐Luc, and 20 ng of pRL‐TK‐Rlu and 1.2 μL of transfection reagent FuGENE HD (Promega, WI, USA) were added into each well. The assay plates were incubated for another 4 h in order to transfect the three vectors into the HEK293 cells. After the vectors were successfully transfected, in agonist assay, 24 μl of concentrated test chemical solution was applied to the test medium in the plate wells. […] After chemical treatment for 40 h, luciferase activity of the cells was measured, and the promoter activity was calculated as firefly (Photinus pyralis)‐/sea pansy (Renilla reniformis)‐luciferase activity in each well. The luciferase activities were quantified by a chemiluminescence assay with Dual‐Luciferase Reporter Assay System (Promega) in accordance with the manufacturer's instructions, and luminescence intensity of firefly and sea pansy luciferin was measured using a luminometer, TriStar LB941 (Berthold Technology, Oak Ridge, TN, USA).
Effect concentrations, that is, EC50 (a half maximal effective concentration) in the agonist assay and IC50 (a half maximal inhibitory concentration) in the antagonist assay, were estimated by nonlinear curve fitting (e.g., three parameters logistic regression curve) using GraphPad Prism (GraphPad Software Inc., La Jolla, CA, USA).

Setting [1] is: mEsr1 RGA agonist assay, ND = no significant response even at the highest assay concentration (in parentheses), read-out: Agonist assay, EC50, Medaka Esr1.

“Also recorded” adds a separate entry of the source. Like-named read-outs stand apart in the source and are kept apart here.

For the compound `Cc1cc(O)ccc1Cl` [CMP, 4‐Chloro‐3‐methylphenol], the EC50 (read-out: Agonist assay, EC50, Medaka Esr1, mEsr1 RGA agonist assay, ND = no significant response even at the highest assay concentration (in parentheses)) turned out to be 61000 nM. For the compound `C#C[C@]1(O)CC[C@H]2[C@@H]3CCc4cc(O)ccc4[C@H]3CC[C@@]21C` [EE2, 17α‐Ethynylestradiol], the EC50 under setting [1] was found to be 0.88 nM. Regarding `CC(=O)[C@H]1CC[C@H]2[C@@H]3CCC4=CC(=O)CC[C@]4(C)[C@H]3CC[C@]12C` [P4, Progesterone], the EC50 was over 10000 nM. Turning to `CCCCCCCCCCCCOS(=O)(=O)[O-].[Na+]` [SDS, Sodium dodecyl sulfate], the “mEsr1 agonist activity (in words)” value (highest concentration 100 μM) is “could not be determined; also recorded: neithEsr agonistic nor antagonistic activity”. For the same compound, the EC50 under setting [1] was over 100000 nM.

On to `CCC(C)(C)c1ccc(O)cc1` [PTH, 4‐tert‐Pentylphenol], for which the half-maximal effective concentration (EC50) under setting [1] turned out to be 970 nM. On the same count and under the same terms, with `C#C[C@]1(O)CC[C@H]2[C@@H]3CCC4=CC(=O)CC[C@@H]4[C@H]3CC[C@@]21CC` [LNG, Levonorgestrel] the figure was 1100 nM.
